Data reported in ChEMBL document CHEMBL3745709, “Synthesis of novel ethyl 1-ethyl-6-fluoro-7-(fatty amido)-1,4-dihydro-4-oxoquinoline-3-carboxylate derivatives and their biological evaluation” (Bioorg Med Chem Lett, 2016).
Converted amounts (≈) assume the structure as drawn. Blank lines part the entries; values can stand above or below the compound they belong to.

Assays:
[1] = Cytotoxicity against human DU145 cells assessed as reduction in cell viability by MTT assay; format: functional, cell-based; conditions: DU-145
[2] = Cytotoxicity against human SKOV3 cells assessed as reduction in cell viability by MTT assay; format: functional, cell-based; conditions: SK-OV-3
[3] = Cytotoxicity against human IMR90 cells assessed as reduction in cell viability by MTT assay; format: cell-based; conditions: IMR-90
[4] = Antioxidant activity assessed as DPPH free radical scavenging activity; format: physicochemical
Bacillus subtilis [5] = assay: Antibiofilm activity against Bacillus subtilis MTCC 121 after 24 hrs by crystal violet staining method; format: functional, organism-based; conditions: MTCC 121, 24 h
Staphylococcus aureus [6] = assay: Antibiofilm activity against Staphylococcus aureus MTCC 96 after 24 hrs by crystal violet staining method; format: functional, organism-based; conditions: MTCC 96, 24 h
Micrococcus luteus = assay: Antibacterial activity against Micrococcus luteus MTCC 2470 assessed as inhibition zone after 24 hrs at 30 degC by well diffusion method; format: functional; conditions: MTCC 2470, 24 h
Staphylococcus aureus [7] = assay: Antibacterial activity against Staphylococcus aureus MTCC 96 […] after 24 hrs at 30 degC by well diffusion method; format: functional; conditions: MTCC 96, 24 h
Staphylococcus aureus [8] = assay: Antibacterial activity against Staphylococcus aureus MLS-16 MTCC 2940 assessed as inhibition zone after 24 hrs at 30 degC by well diffusion method; format: functional; conditions: MLS-16 MTCC 2940, 24 h
Bacillus subtilis [9] = assay: Antibacterial activity against Bacillus subtilis MTCC 121 assessed as inhibition zone after 24 hrs at 30 degC by well diffusion method; format: functional; conditions: MTCC 121, 24 h
Escherichia coli [10] = assay: Antibacterial activity against Escherichia coli MTCC 739 assessed as inhibition zone after 24 hrs at 30 degC by well diffusion method; format: functional; conditions: MTCC 739, 24 h
Pseudomonas aeruginosa = assay: Antibacterial activity against Pseudomonas aeruginosa MTCC 2453 assessed as inhibition zone after 24 hrs at 30 degC by well diffusion method; format: functional; conditions: MTCC 2453, 24 h
Raoultella planticola = assay: Antibacterial activity against Klebsiella planticola MTCC 530 assessed as inhibition zone after 24 hrs at 30 degC by well diffusion method; format: functional; conditions: MTCC 530, 24 h
Bacillus subtilis [11] = assay: Bactericidal activity against Bacillus subtilis MTCC 121 assessed as microbial killing after 24 hrs; format: functional; conditions: MTCC 121, 24 h
Staphylococcus aureus [12] = assay: Bactericidal activity against Staphylococcus aureus MTCC 96 assessed as microbial killing after 24 hrs; format: functional; conditions: MTCC 96, 24 h
Staphylococcus aureus [13] = assay: Bactericidal activity against Staphylococcus aureus MLS-16 MTCC 2940 assessed as microbial killing after 24 hrs; format: functional; conditions: MLS-16 MTCC 2940, 24 h
Escherichia coli [14] = assay: Bactericidal activity against Escherichia coli MTCC 739 assessed as microbial killing after 24 hrs; format: functional; conditions: MTCC 739, 24 h
Staphylococcus aureus [15] = assay: Antibiofilm activity against Staphylococcus aureus MLS-16 MTCC 2940 after 24 hrs by crystal violet staining method; format: functional, organism-based; conditions: MLS-16 MTCC 2940, 24 h
Escherichia coli [16] = assay: Antibiofilm activity against Escherichia coli MTCC 739 after 24 hrs by crystal violet staining method; format: functional, organism-based; conditions: MTCC 739, 24 h

SMILES: COc1cccc2c1C(=O)c1c(O)c3c(c(O)c1C2=O)C[C@@](O)(C(=O)CO)C[C@@H]3O[C@H]1C[C@H](N)[C@H](O)[C@H](C)O1 [DOXORUBICIN]
- IC50 [1]: 0.7 µM
- IC50 [2]: 0.7 µM
- IC50 [3]: 21.3 µM

- EC50 [4]: 10.4 µg/mL (≈ 24.1 µM)
SMILES: Cc1c(C)c2c(c(C)c1O)CC[C@@](C)(CCC[C@H](C)CCC[C@H](C)CCCC(C)C)O2 [ALPHA-TOCOPHEROL]

SMILES: O=C(O)c1cn(C2CC2)c2cc(N3CCNCC3)c(F)cc2c1=O [CIPROFLOXACIN]
- IC50 (Bacillus subtilis [5]): 0.7 µg/mL (≈ 2.11 µM)
- IC50 (Staphylococcus aureus [6]): 0.6 µg/mL (≈ 1.81 µM)
- MIC (Micrococcus luteus): 0.9 µg/mL (≈ 2.72 µM)
- MIC (Staphylococcus aureus [7]): 0.9 µg/mL (≈ 2.72 µM)
- MIC (Staphylococcus aureus [8]): 0.9 µg/mL (≈ 2.72 µM)
- MIC (Bacillus subtilis [9]): 0.9 µg/mL (≈ 2.72 µM)
- MIC (Escherichia coli [10]): 0.9 µg/mL (≈ 2.72 µM)
- MIC (Pseudomonas aeruginosa): 0.9 µg/mL (≈ 2.72 µM)
- MIC (Raoultella planticola): 0.9 µg/mL (≈ 2.72 µM)
- MBC (Bacillus subtilis [11]): 1.9 µg/mL (≈ 5.73 µM)
- MBC (Staphylococcus aureus [12]): 0.9 µg/mL (≈ 2.72 µM)
- MBC (Staphylococcus aureus [13]): 0.9 µg/mL (≈ 2.72 µM)
- MBC (Escherichia coli [14]): 0.9 µg/mL (≈ 2.72 µM)
- IC50 (Staphylococcus aureus [15]): 0.4 µg/mL (≈ 1.21 µM)
- IC50 (Escherichia coli [16]): 0.5 µg/mL (≈ 1.51 µM)
